The source of these data is patent publication US20110184018A1, “METHOD FOR TREATING PERIPHERAL NEUROPATHIC PAIN” (LOHOCLA RESEARCH CORPORATION, priority 2005, published 2011).

Data set [1] has as its system rats following spinal nerve ligation (SNL). The data set can be described thus: Thermal and tactile hyperalgesia after spinal nerve ligation (SNL). It counts as in vivo, rat. As to the method:
FIG. 7 illustrates the scheme for testing the DCUK ethyl ester in neuropathic pain models. In FIG. 7 graphs showing attenuation of tactile (Panel A) and thermal (Panel B) hyperalgesia in animals following spinal nerve ligation (SNL) are provided. DCUK-OEt (30 or 100 mg/kg) was administered at the time indicated by the arrow. Hyperalgesic responses were followed for the next 180 minutes. The shaded area represents the area of hyperalgesia produced by SNL. BL on the X-axis represents the baseline response of animals prior to spinal nerve ligation. SNL represents the response of the animals after spinal nerve ligation and prior to receiving the DCUKA ethyl ester.
Spinal Nerve Ligation and Sham Surgery. Anesthesia was maintained with 0.5% halothane in oxygen. After surgical preparation of the rats, a 2-cm paraspinal incision was made at the level L4-S2. The unilateral L5 and L6 spinal nerves were exposed and tightly ligated distal to the dorsal root ganglia by using 4-0 silk suture. The incisions were closed, and animals were allowed to recover. Sham-operated control rats were prepared in an identical manner without L5/L6 nerve ligation. […] Separate groups of animals were used in tests for thermal and tactile hypersensitivity.
Tactile Hypersensitivity Test and Evaluation. Animals were placed in a suspended plastic chamber with a wire mesh platform and allowed to habituate for 15 minutes. Tactile hypersensitivity was determined by measuring paw withdrawal threshold in response to probing the plantar surface of the left hind paw with a series of 8 calibrated von Frey filaments (0.40, 0.70, 1.20, 2.00, 3.63, 5.50, 8.50, and 15.1 g). Measurements were taken before surgery and before and after administration of drug or vehicle. Withdrawal threshold was determined by sequentially increasing and decreasing stimulus intensity (“up and down” method), analyzed by using a Dixon nonparametric test, and expressed as the paw withdrawal threshold in gram force values. All studies were carried out 7 days after spinal nerve ligation (SNL).
Thermal Hypersensitivity Test (Radiant Heat Paw Withdrawal Test). Rats were placed in clear plastic chambers on a glass surface and were habituated for 15 minutes before testing. Thermal sensitivity was measured by using paw withdrawal latency to a radiant heat stimulus. A radiant heat source (i.e., infrared) was activated with a timer and focused onto the plantar surface of the left hind paw of a rat, and the latency to paw withdrawal was measured. A motion detector that halted both lamp and timer when the paw was withdrawn determined paw withdrawal latency. The latencies were measured before surgery and before and after drug or vehicle administration. A maximum cutoff of 33 seconds was used to prevent tissue damage. […]

Data set [2] is described as follows: Solubility limit in aqueous assay buffers. It is filed as physicochemical. The settings on record: aqueous assay buffers (incubation or bath solutions), aqueous buffer, kinetic from dmso stock, DMSO 0.2 to 1%, read-out: concentrations that could not be tested due to limited solubility in aqueous buffers. How it is done:
Drugs. For all in vitro assays, stock solutions of DCUKA or DCUK-OMe were prepared fresh daily in dimethylsulfoxide (DMSO) then diluted into the incubation or bath solutions with sonication to the desired concentrations for experiments. Due to their limited solubility in aqueous buffers, DCUKA concentrations >300 μM and DCUK-OMe concentrations >100 μM could not be tested. In those assays where high ionic strength buffers were used, i.e., [^3H]batrachiotoxin (BTX) binding in depolarized synaptosomes, concentrations >50 μM could not be tested. The final concentration of DMSO in the assays ranged from 0.2 to 1%. In all assays, drug effects were compared with effects measured in the presence of the identical concentration of DMSO without drug.

Take `CCOC(=O)c1cc(NC(=O)N(c2ccccc2)c2ccccc2)c2c(Cl)cc(Cl)cc2n1` [DCUK-OEt, N,N-diphenyl-4-ureido-5,7-dichloro-2-carboxy quinoline ethyl ester]: the “normalization of thermal versus tactile hyperalgesia” value in data set [1] (30 or 100 mg/kg) is recorded as “thermal hyperalgesia is normalized by administration of DCUKA ethyl ester to a greater extent than tactile hyperalgesia”. The “inhibition of thermal hyperalgesia” value in data set [1] (i.p., 100 mg/kg) worked out at 75%; in data set [1] (p.o., about 150 mg/kg), 45%. In addition, the “reduction of thermal hyperalgesia” value in data set [1] (oral, 200 mg/kg emulsion) is “about 70%”.

Take `O=C(O)c1cc(NC(=O)N(c2ccccc2)c2ccccc2)c2c(Cl)cc(Cl)cc2n1` [DCUKA, N,N-diphenyl-4-ureido-5,7-dichloro-2-carboxyquinoline]: the solubility in data set [2] is more than 300 µM.
